Test results taken from PMC11227536, “Modulation of the Meisenheimer complex metabolism of nitro-benzothiazinones by targeted C-6 substitution” (Communications Chemistry, 2024).

What was measured:
Cytotoxicity assay = format: cell-based; conditions: human, n = 4
Procedure: Supplementary Method 5: Biological Assays […]
2. Proliferation and cytotoxicity assay
Cells and culture conditions
The following cell lines and media were used:
Cell line Cell culture medium
Cells were grown in the appropriate cell culture medium supplemented with 10 mL/L ultraglutamine 1 […]
heat inactivated fetal bovine serum (GIBCO Life Technologies 10270-106) at 37 °C in 5% CO 2 in high density polyethylene flasks (NUNC 156340).
To decide if the compounds have an antiproliferative and/or a cytotoxic effect on human cells, cell death and retardation of cell proliferation were assessed. Under our experimental conditions, the optical density measured from the CellTiter-Blue® reagent and methylene blue assay is proportional to the […]
The test substances were dissolved in DMSO and further diluted in the cell culture medium. The adherent cells were harvested at the logarithmic growth phase after soft trypsinization using 0.25% trypsin in PBS containing 0.02% EDTA (Biochrom KG L2163). For each experiment, approximately 10,000 cells were seeded with 0.1 mL culture medium per well of the 96-well microplates (HUVEC: flat bottomed NUNC 167008, K-562: round bottomed NUNC 163320). […]
For the cytotoxicity assay, HeLa cells were preincubated for 48 hours without the test substances. To test the cytotoxic effect on HeLa, dilutions of the compounds were carried out carefully on the subconfluent monolayers of HeLa cells after the preincubation time. After incubation time, the cytolytic effect of compounds was analysed in comparison to the negative control. The 50% cytotoxic concentration (CC 50 ) was defined as the test compound concentration required for destruction of the cell monolayer by 50% compared to untreated control.
Cells were incubated with dilutions of the test substances in microplates for 72 hours at 37 °C in a humidified atmosphere and 5% CO 2. […]
cytotoxicity and the inhibition of cell proliferation. The number of viable cells was determined subsequent to staining with CellTiter-Blue® reagent or methylene blue. […]
HUVEC and HeLa cells: The adherent HUVEC and HeLa cells were fixed by glutaraldehyde (MERCK […]
gently washing, the stain was eluted by adding 0.2 mL of hydrochloric acid (0.33 M) to each well. The optical densities were measured at 660 nm (methylene blue) in SUNRISE microplate reader (TECAN).
General remarks: Signals from the methylene blue and CellTiter-Blue® reagent are proportional to the number of viable cells. A repeat determination has been conducted in all experiments, four replicates were assayed. The calculations of the different values of GI 50 and CC 50 were performed with the software

RAW 264.7 cells = test: Hydride Meisenheimer complex (HMC) formation propensity assay, whole cell; format: in vitro ADME, murine; conditions: whole cell in vitro assay, relative to BTZ-043 (1)
Source text: As the main goal of our work, we focused on the impact of C-6 substituents on the propensity to form HMC in our recently developed whole cell in vitro assay. Following our standardized protocol, all measurements were normalized relative to BTZ-043 (1). Obtained HMC formation propensities (Table S5) were transformed into their negative decadic logarithm (pHMC) to ease data visualization and subsequent processing during chemoinformatics investigations (Fig. 5). […] In the case of esters, a plausible pattern according to the substituent size was observed. […] Similarly, dimethyl amide 7c and nitrile 9 produced a 14- and 12-fold larger ratio of HMC compared to 1, respectively. Esters 6a–e and oxazoline 7e were also more prone to HMC formation than 1, albeit to a considerably lesser extent (2.5–6-fold).
3. Hydride Meisenheimer complex formation propensity assay
The assay was performed as described previously. 6
RAW 264.7 cell cultivation […]
Samples were analyzed with a Thermo Vanquish Horizon UHPLC system (Thermo Fisher Scientific, Bremen, Germany) coupled to a Thermo Scientific QExactive Orbitrap mass spectrometer (Thermo Fisher Scientific, Bremen, Germany) by using a UPLC column (ACQUITY HSS T3, Waters, 1.8 µm particle size, 2.1 × 50 mm). […]

Row | Structure (SMILES) | CC50 at 72 h (Cytotoxicity assay) [µM] | HMC formation (in words) (RAW 264.7 cells)
1 | COC(=O)c1cc([N+](=O)[O-])c2sc(N3CCC4(CC3)OC[C@H](C)O4)nc(=O)c2c1 [Compound 6a] | > 119 | –
2 | CC(C)OC(=O)c1cc([N+](=O)[O-])c2sc(N3CCC4(CC3)OC[C@H](C)O4)nc(=O)c2c1 [Compound 6c] | > 111 | –
3 | C[C@H]1COC2(CCN(c3nc(=O)c4cc(C(=O)N(C)C)cc([N+](=O)[O-])c4s3)CC2)O1 [Compound 7c] | > 115 | –
4 | CON(C)C(=O)c1cc([N+](=O)[O-])c2sc(N3CCC4(CC3)OC[C@H](C)O4)nc(=O)c2c1 [Compound 7f] | > 111 | –
5 | C[C@H]1COC2(CCN(c3nc(=O)c4cc(C(=O)O)cc([N+](=O)[O-])c4s3)CC2)O1 [Compound 8] | > 123 | Traces
6 | C[C@H]1COC2(CCN(c3nc(=O)c4cc(C#N)cc([N+](=O)[O-])c4s3)CC2)O1 [Compound 9] | > 129 | –
7 | C[C@H]1COC2(CCN(c3nc(=O)c4cc(I)cc([N+](=O)[O-])c4s3)CC2)O1 [Compound 10] | > 102 | –
8 | C[C@H]1COC2(CCN(c3nc(=O)c4cc(Br)cc([N+](=O)[O-])c4s3)CC2)O1 [Compound 11] | > 113 | –
9 | C[C@H]1COC2(CCN(c3nc(=O)c4cccc([N+](=O)[O-])c4s3)CC2)O1 [Compound 23] | > 138 | no detectable HMC formation
